Experimental data: ChEMBL document CHEMBL3046652, “Photodimerization of heteroaryl chalcones: comparative antimicrobial activities of chalcones and their photoproducts” (2012)
Values after ≈ are worked out from the molar mass of the structure shown.

Tests used:
Format in all cases: functional
Aspergillus oryzae [1] = assay: Antimicrobial activity against Aspergillus oryzae at 10 to 60 ug/disk by disk diffusion method
Klebsiella pneumoniae [2] = assay: Antimicrobial activity against Klebsiella pneumoniae at 10 to 60 ug/disk by disk diffusion method
Proteus vulgaris [3] = assay: Antimicrobial activity against Proteus vulgaris at 10 to 60 ug/disk by disk diffusion method
Aspergillus niger [4] = assay: Antimicrobial activity against Aspergillus niger at 10 to 60 ug/disk by disk diffusion method
Serratia marcescens [5] = assay: Antimicrobial activity against Serratia marcescens at 10 to 60 ug/disk by disk diffusion method
Escherichia coli [6] = assay: Antimicrobial activity against Escherichia coli at 10 to 60 ug/disk by disk diffusion method
Pseudomonas aeruginosa [7] = assay: Antimicrobial activity against Pseudomonas aeruginosa at 10 to 60 ug/disk by disk diffusion method
Fusarium verticillioides [8] = assay: Antimicrobial activity against Fusarium verticillioides at 10 to 60 ug/disk by disk diffusion method
Citrobacter freundii [9] = assay: Antimicrobial activity against Citrobacter freundii at 10 to 60 ug/disk by disk diffusion method
Salmonella typhi [10] = assay: Antimicrobial activity against Salmonella enterica subsp. enterica serovar Typhi at 10 to 60 ug/disk by disk diffusion method
Candida albicans [11] = assay: Antimicrobial activity against Candida albicans at 10 to 60 ug/disk by disk diffusion method
Micrococcus luteus [12] = assay: Antimicrobial activity against Micrococcus luteus at 10 to 60 ug/disc by disk diffusion method
Priestia megaterium [13] = assay: Antimicrobial activity against Bacillus megaterium at 10 to 60 ug/disk by disk diffusion method
Pseudomonas aeruginosa [14] = assay: Antimicrobial activity against Pseudomonas aeruginosa at 40 ug/disk by disk diffusion method; conditions: read-out: DIZ
Serratia marcescens [15] = assay: Antimicrobial activity against Serratia marcescens by disk diffusion method
Aspergillus oryzae [16] = assay: Antimicrobial activity against Aspergillus oryzae at 30 ug/disk by disk diffusion method; conditions: read-out: DIZ
Klebsiella pneumoniae [17] = assay: Antimicrobial activity against Klebsiella pneumoniae by disk diffusion method
Escherichia coli [18] = assay: Antimicrobial activity against Escherichia coli by disk diffusion method
Salmonella typhi [19] = assay: Antimicrobial activity against Salmonella enterica subsp. enterica serovar Typhi by disk diffusion method
Klebsiella pneumoniae [20] = assay: Antimicrobial activity against Klebsiella pneumoniae at 20 ug/disk by disk diffusion method; conditions: read-out: DIZ
Aspergillus niger [21] = assay: Antimicrobial activity against Aspergillus niger at 20 ug/disk by disk diffusion method; conditions: read-out: DIZ
Fusarium verticillioides [22] = assay: Antimicrobial activity against Fusarium verticillioides at 30 ug/disk by disk diffusion method; conditions: read-out: DIZ
Citrobacter freundii [23] = assay: Antimicrobial activity against Citrobacter freundii by disk diffusion method
Proteus vulgaris [24] = assay: Antimicrobial activity against Proteus vulgaris at 10 ug/disk by disk diffusion method; conditions: read-out: DIZ
Priestia megaterium [25] = assay: Antimicrobial activity against Bacillus megaterium at 10 ug/disk by disk diffusion method; conditions: read-out: DIZ
Proteus vulgaris [26] = assay: Antimicrobial activity against Proteus vulgaris by disk diffusion method
Pseudomonas aeruginosa [27] = assay: Antimicrobial activity against Pseudomonas aeruginosa by disk diffusion method
Escherichia coli [28] = assay: Antimicrobial activity against Escherichia coli at 30 ug/disk by disk diffusion method; conditions: read-out: DIZ
Citrobacter freundii [29] = assay: Antimicrobial activity against Citrobacter freundii at 20 ug/disk by disk diffusion method; conditions: read-out: DIZ
Candida albicans [30] = assay: Antimicrobial activity against Candida albicans at 10 ug/disk by disk diffusion method; conditions: read-out: DIZ
Micrococcus luteus [31] = assay: Antimicrobial activity against Micrococcus luteus by disk diffusion method
Salmonella typhi [32] = assay: Antimicrobial activity against Salmonella enterica subsp. enterica serovar Typhi at 50 ug/disk by disk diffusion method; conditions: read-out: DIZ
Micrococcus luteus [33] = assay: Antimicrobial activity against Micrococcus luteus at 10 ug/disc by disk diffusion method; conditions: read-out: DIZ
Serratia marcescens [34] = assay: Antimicrobial activity against Serratia marcescens at 10 ug/disk by disk diffusion method; conditions: read-out: DIZ
Priestia megaterium [35] = assay: Antimicrobial activity against Bacillus megaterium by disk diffusion method
Citrobacter freundii [36] = assay: Antimicrobial activity against Citrobacter freundii at 10 ug/disk by disk diffusion method; conditions: read-out: DIZ
Salmonella typhi [37] = assay: Antimicrobial activity against Salmonella enterica subsp. enterica serovar Typhi at 10 ug/disk by disk diffusion method; conditions: read-out: DIZ
Escherichia coli [38] = assay: Antimicrobial activity against Escherichia coli at 10 ug/disk by disk diffusion method; conditions: read-out: DIZ
Pseudomonas aeruginosa [39] = assay: Antimicrobial activity against Pseudomonas aeruginosa at 10 ug/disk by disk diffusion method; conditions: read-out: DIZ
Aspergillus niger [40] = assay: Antimicrobial activity against Aspergillus niger at 10 ug/disk by disk diffusion method; conditions: read-out: DIZ
Fusarium verticillioides [41] = assay: Antimicrobial activity against Fusarium verticillioides at 20 ug/disk by disk diffusion method; conditions: read-out: DIZ
Klebsiella pneumoniae [42] = assay: Antimicrobial activity against Klebsiella pneumoniae at 10 ug/disk by disk diffusion method; conditions: read-out: DIZ
Aspergillus oryzae [43] = assay: Antimicrobial activity against Aspergillus oryzae at 10 ug/disk by disk diffusion method; conditions: read-out: DIZ
Candida albicans [44] = assay: Antimicrobial activity against Candida albicans at 20 ug/disk by disk diffusion method; conditions: read-out: DIZ

For OC(/C=C/c1ccco1)(c1ccccc1)C(O)(/C=C/c1ccco1)c1ccccc1 (stereo not given), the “diameter of the inhibition zone (DIZ)” value (Aspergillus oryzae [1]) was 5 mm, the “diameter of the inhibition zone (DIZ)” value (Klebsiella pneumoniae [2]) was 5 mm and the “diameter of the inhibition zone (DIZ)” value (Proteus vulgaris [3]) was 9 mm. The “diameter of the inhibition zone (DIZ)” value (Aspergillus niger [4]) was 9 mm, the “diameter of the inhibition zone (DIZ)” value (Serratia marcescens [5]) was 5 mm and the “diameter of the inhibition zone (DIZ)” value (Escherichia coli [6]) was 5 mm. The “diameter of the inhibition zone (DIZ)” value (Pseudomonas aeruginosa [7]) was 5 mm, the “diameter of the inhibition zone (DIZ)” value (Fusarium verticillioides [8]) was 7 mm and the “diameter of the inhibition zone (DIZ)” value (Citrobacter freundii [9]) was 9 mm. The “diameter of the inhibition zone (DIZ)” value (Salmonella typhi [10]) was 5 mm, the “diameter of the inhibition zone (DIZ)” value (Candida albicans [11]) was 5 mm and the “diameter of the inhibition zone (DIZ)” value (Micrococcus luteus [12]) was 6 mm. The “diameter of the inhibition zone (DIZ)” value (Priestia megaterium [13]) was 7 mm.

With O=C(c1ccc[nH]1)C1C(C(=O)c2ccc[nH]2)C(c2ccccc2)C1c1ccccc1 (stereo not given) the “diameter of the inhibition zone (DIZ)” value (Aspergillus oryzae [1]) was 5 mm, the “diameter of the inhibition zone (DIZ)” value (Klebsiella pneumoniae [2]) was 5 mm and the “diameter of the inhibition zone (DIZ)” value (Proteus vulgaris [3]) was 5 mm. For the same compound, the “diameter of the inhibition zone (DIZ)” value (Aspergillus niger [4]) was 5 mm, the “diameter of the inhibition zone (DIZ)” value (Serratia marcescens [5]) was 5 mm and the “diameter of the inhibition zone (DIZ)” value (Escherichia coli [6]) was 5 mm. The “diameter of the inhibition zone (DIZ)” value (Pseudomonas aeruginosa [7]) was 6 mm, the “diameter of the inhibition zone (DIZ)” value (Fusarium verticillioides [8]) was 5 mm and the “diameter of the inhibition zone (DIZ)” value (Citrobacter freundii [9]) was 5 mm. For the same compound, the “diameter of the inhibition zone (DIZ)” value (Salmonella typhi [10]) was 5 mm, the “diameter of the inhibition zone (DIZ)” value (Candida albicans [11]) was 5 mm and the “diameter of the inhibition zone (DIZ)” value (Micrococcus luteus [12]) was 5 mm. The “diameter of the inhibition zone (DIZ)” value (Priestia megaterium [13]) was 5 mm.

For O=C(c1cccs1)C1C(C(=O)c2cccs2)C(c2ccccc2)C1c1ccccc1 (stereo not given), the “diameter of the inhibition zone (DIZ)” value (Aspergillus oryzae [1]) was 5 mm, the “diameter of the inhibition zone (DIZ)” value (Klebsiella pneumoniae [2]) was 5 mm and the “diameter of the inhibition zone (DIZ)” value (Proteus vulgaris [3]) was 5 mm. For the same compound, the “diameter of the inhibition zone (DIZ)” value (Aspergillus niger [4]) was 5 mm, the “diameter of the inhibition zone (DIZ)” value (Serratia marcescens [5]) was 5 mm and the “diameter of the inhibition zone (DIZ)” value (Escherichia coli [6]) was 5 mm. The “diameter of the inhibition zone (DIZ)” value (Pseudomonas aeruginosa [7]) was 5 mm, the “diameter of the inhibition zone (DIZ)” value (Fusarium verticillioides [8]) was 5 mm and the “diameter of the inhibition zone (DIZ)” value (Citrobacter freundii [9]) was 5 mm. For the same compound, the “diameter of the inhibition zone (DIZ)” value (Salmonella typhi [10]) was 6 mm, the “diameter of the inhibition zone (DIZ)” value (Candida albicans [11]) was 5 mm and the “diameter of the inhibition zone (DIZ)” value (Micrococcus luteus [12]) was 7 mm. The “diameter of the inhibition zone (DIZ)” value (Priestia megaterium [13]) was 9 mm.

With O=C(/C=C/c1ccccc1)c1ccc[nH]1 the zone of inhibition at 40 µg/disc (Pseudomonas aeruginosa [14]) was 7 mm, the MIC (Serratia marcescens [15]) was 10 µg/mL (≈ 50.7 µM) and the zone of inhibition at 30 µg/disc (Aspergillus oryzae [16]) was 9 mm. It also gave an MIC (Klebsiella pneumoniae [17]) of 10 µg/mL (≈ 50.7 µM), an MIC (Escherichia coli [18]) of 10 µg/mL (≈ 50.7 µM) and an MIC (Salmonella typhi [19]) of 10 µg/mL (≈ 50.7 µM). It also gave a zone of inhibition at 20 µg/disc (Klebsiella pneumoniae [20]) of 8 mm, a zone of inhibition at 20 µg/disc (Aspergillus niger [21]) of 11 mm and a zone of inhibition at 30 µg/disc (Fusarium verticillioides [22]) of 8 mm. It also gave an MIC (Citrobacter freundii [23]) of 10 µg/mL (≈ 50.7 µM), a zone of inhibition at 10 µg/disc (Proteus vulgaris [24]) of 5 mm and a zone of inhibition at 10 µg/disc (Priestia megaterium [25]) of 13 mm. It also gave an MIC (Proteus vulgaris [26]) of 10 µg/mL (≈ 50.7 µM), an MIC (Pseudomonas aeruginosa [27]) of 10 µg/mL (≈ 50.7 µM) and a zone of inhibition at 30 µg/disc (Escherichia coli [28]) of 7 mm. It also gave a zone of inhibition at 20 µg/disc (Citrobacter freundii [29]) of 6 mm, a zone of inhibition at 10 µg/disc (Candida albicans [30]) of 7 mm and an MIC (Micrococcus luteus [31]) of 10 µg/mL (≈ 50.7 µM). The zone of inhibition at 50 µg/disc (Salmonella typhi [32]) was 7 mm, the zone of inhibition at 10 µg/disc (Micrococcus luteus [33]) was 7 mm and the zone of inhibition at 10 µg/disc (Serratia marcescens [34]) was 9 mm. For the same compound, the MIC (Priestia megaterium [35]) was 10 µg/mL (≈ 50.7 µM).

For O=C(/C=C/c1ccco1)c1ccccc1, the MIC (Serratia marcescens [15]) was 10 µg/mL (≈ 50.4 µM), the zone of inhibition at 10 µg/disc (Citrobacter freundii [36]) was 7 mm and the zone of inhibition at 30 µg/disc (Aspergillus oryzae [16]) was 8 mm. The MIC (Klebsiella pneumoniae [17]) was 10 µg/mL (≈ 50.4 µM), the zone of inhibition at 10 µg/disc (Salmonella typhi [37]) was 5 mm and the zone of inhibition at 10 µg/disc (Escherichia coli [38]) was 5 mm. The MIC (Escherichia coli [18]) was 10 µg/mL (≈ 50.4 µM), the MIC (Salmonella typhi [19]) was 10 µg/mL (≈ 50.4 µM) and the zone of inhibition at 10 µg/disc (Pseudomonas aeruginosa [39]) was 5 mm. It also gave an MIC (Citrobacter freundii [23]) of 10 µg/mL (≈ 50.4 µM), a zone of inhibition at 10 µg/disc (Aspergillus niger [40]) of 8 mm and a zone of inhibition at 20 µg/disc (Fusarium verticillioides [41]) of 7 mm. It also gave a zone of inhibition at 10 µg/disc (Proteus vulgaris [24]) of 9 mm, a zone of inhibition at 10 µg/disc (Priestia megaterium [25]) of 9 mm and an MIC (Proteus vulgaris [26]) of 20 µg/mL (≈ 101 µM). It also gave an MIC (Pseudomonas aeruginosa [27]) of 10 µg/mL (≈ 50.4 µM), a zone of inhibition at 10 µg/disc (Candida albicans [30]) of 9 mm and an MIC (Micrococcus luteus [31]) of 10 µg/mL (≈ 50.4 µM). It also gave a zone of inhibition at 10 µg/disc (Micrococcus luteus [33]) of 9 mm, a zone of inhibition at 10 µg/disc (Serratia marcescens [34]) of 7 mm and a zone of inhibition at 10 µg/disc (Klebsiella pneumoniae [42]) of 6 mm. For the same compound, the MIC (Priestia megaterium [35]) was 20 µg/mL (≈ 101 µM).

For O=C(/C=C/c1ccccc1)c1ccco1, the MIC (Serratia marcescens [15]) was 10 µg/mL (≈ 50.4 µM), the zone of inhibition at 10 µg/disc (Citrobacter freundii [36]) was 13 mm and the zone of inhibition at 10 µg/disc (Aspergillus oryzae [43]) was 8 mm. It also gave an MIC (Klebsiella pneumoniae [17]) of 10 µg/mL (≈ 50.4 µM), a zone of inhibition at 10 µg/disc (Salmonella typhi [37]) of 5 mm and a zone of inhibition at 10 µg/disc (Escherichia coli [38]) of 5 mm. For the same compound, the MIC (Escherichia coli [18]) was 10 µg/mL (≈ 50.4 µM), the MIC (Salmonella typhi [19]) was 10 µg/mL (≈ 50.4 µM) and the zone of inhibition at 10 µg/disc (Pseudomonas aeruginosa [39]) was 5 mm. The MIC (Citrobacter freundii [23]) was 10 µg/mL (≈ 50.4 µM), the zone of inhibition at 10 µg/disc (Aspergillus niger [40]) was 11 mm and the zone of inhibition at 20 µg/disc (Fusarium verticillioides [41]) was 7 mm. It also gave a zone of inhibition at 10 µg/disc (Proteus vulgaris [24]) of 8 mm, a zone of inhibition at 10 µg/disc (Priestia megaterium [25]) of 11 mm and an MIC (Proteus vulgaris [26]) of 10 µg/mL (≈ 50.4 µM). The MIC (Pseudomonas aeruginosa [27]) was 10 µg/mL (≈ 50.4 µM), the zone of inhibition at 20 µg/disc (Candida albicans [44]) was 7 mm and the MIC (Micrococcus luteus [31]) was 10 µg/mL (≈ 50.4 µM). For the same compound, the zone of inhibition at 10 µg/disc (Micrococcus luteus [33]) was 11 mm, the zone of inhibition at 10 µg/disc (Serratia marcescens [34]) was 5 mm and the zone of inhibition at 10 µg/disc (Klebsiella pneumoniae [42]) was 7 mm. The MIC (Priestia megaterium [35]) was 10 µg/mL (≈ 50.4 µM).
